Assay results as given in patent publication EP4778522A1, “USE OF PYRROLOPYRIMIDINE COMPOUND AND COMPOSITION THEREOF” (Guangzhou Joyo Pharmatech Co., Ltd., priority 2023, dated 2025).
Marks after values point to notes of the source that are not given here.

Experiments:
[1] = test system: imiquimod-induced C3H/HeJ mice alopecia areata model; test: Imiquimod-induced mouse alopecia areata model: hair growth; format: in vivo; conditions: for Hair growth rate (%): listed as test drug
Procedure: • 1) Animals: female C3H/He mice, SPF, aged 6-8 weeks at grouping. The animals were provided by Beijing Viewsolid Biotech. • 2) Reagents, positive drugs and test drugs
After one week of adaptive feeding of C3H/HeJ mice: modeling was performed by applying imiquimod ointment to the neck, 3 times a week. The mice were carefully taken out, and about 0.05 g of 5% imiquimod ointment was dipped with a clean medical cotton swab and then applied evenly to the skin on the neck over a range of about 1.5 cm×1.5 cm. Before each application, the local part was cleaned by normal saline to remove the residual drug in the previous time. The continuous administration time was no longer than 10 weeks. When alopecia areata with an area size > 1 cm×1 cm was formed at the administration part, the administration was stopped, proving that a preparation model was successful. The mice in the normal control group were modeled by using blank ointment (vaseline ointment).
During the period from the first administration to the end of the last administration after the alopecia areata modeling was successful, the alopecia areata part of each mouse was photographed once every 3 days, the photographing distance, angle and magnification times were fixed, and the hair growth of the alopecic areas on the backs of the mice was recorded.
Visual quantification of the alopecia area images was performed using ImageJ software. The hair growth area (a) and hair loss area (b) were calculated. The hair growth rate was counted and analyzed: hair growth rate (%) = (a/b)* 100%. The newly grown hairs at the alopecia areata part of the mice in each group were scored based on the hair growth rate. Table 14 Scoring criteria of newly grown hairs

[2] = test system: monobenzone-induced mouse vitiligo model; test: Monobenzone-induced mouse vitiligo model: hair depigmentation area scoring; format: in vivo, C57BL/6 mice; parameters: Hair depigmentation area scoring: scale not given here
Procedure: • 1) Animals: C57BL/6 mice, specific pathogen-free (SPF), with equal numbers of females and males. The mice were 6-8 weeks old at grouping, with 10 mice per group. The animals were provided by Charles River Laboratories. • 2) Reagents, positive drugs and test drugs
Monobenzone induction method: after 1 week of adaptive feeding of all the animals, modeling was performed and all black hairs on the back of the mice were removed by a shaver. 10 animals were randomly selected as a normal control group and applied with 50 mg of vaseline once a day; and the remaining 80 animals were used for modeling and applied with 50 mg of 40% monobenzone depigmentation ointment once a day. The applying area of the normal control group and the model group was 2 cm*3 cm of the fixed part of the back, and the modeling was continuously performed for 103 days. In order to prevent the phenomenon that the animals lick the drugs, after the animals were applied with a modeling agent, they needed to be separately placed in an independent cage without padding for a period of time to naturally dry the modeling agent, and then they were placed in a rearing cage for normal rearing. During the modeling process, new hairs grown in the alopecic areas of the backs of the mice were shaved by the shaver and then applied with the drug.
The 40% monobenzone depigmentation ointment was applied every day. After modeling for 53 days, according to a depigmentation area score (see scoring criteria of Table 9), 70 animals successfully modeled in modeling group (score ≥ 2) were randomly divided into 7 groups with 10 mice per group. The mean depigmentation area score of the animals in each group was basically consistent before the administration, and the day of grouping was defined as day 0 of the administration treatment period. Table 8 Grouping and administration regimen
During the whole experiment process, the mice in normal control group (G1) were applied with 50 mg of vaseline once a day; and the mice in each model group (G2-G8) were applied with 50 mg of 40% monobenzone ointment once a day. After modeling for 53 days, the mice were grouped and subjected to drug treatment after grouping consecutively for 50 days. The modeling operation was maintained during the drug intervention period. The mice were applied with the drug twice a day for treatment at an interval of 6 hours or more. […]

In the case of CN(c1ncnc2[nH]ccc12)[C@@H]1CCc2cc(C#N)nn2C1 [compound I], the “Hair growth rate (%)” value ([1]; 3 mg/kg oral by gavage twice a day for one month, Day 30) was 71.62 ± 5.56%, the “amelioration effect (comparison)” value ([1]; 3 mg/kg oral, hair growth at alopecic area, Day 30) was “equivalent to that of the positive control drug at the dose of 10 mg/kg” and the “Hair growth rate (%)” value ([1]; 10 mg/kg oral by gavage twice a day for one month, Day 30) was 83.93 ± 5.58%. For the same compound, the “therapeutic effect (comparison)” value ([1]; mouse alopecia areata model, oral) was “superior to that of the positive drug baricitinib”, the “Hair depigmentation area scoring” value ([2]; Day 0 (before administration), 0.5% compound I gel group) was 3.80 and the “Hair depigmentation area scoring” value ([2]; Day 0 (before administration), 1% compound I gel group) was 3.70. The “Hair depigmentation area scoring” value ([2]; Day 0 (before administration), 2% compound I gel group) was 3.80, the “Hair depigmentation area scoring” value ([2]; Day 10, 0.5% compound I gel, 30 mg topical twice a day) was 3.60 ** and the “Hair depigmentation area scoring” value ([2]; Day 10, 1% compound I gel, 30 mg topical twice a day) was 3.90 **. The “Hair depigmentation area scoring” value ([2]; Day 10, 2% compound I gel, 30 mg topical twice a day) was 4.00 **, the “Hair depigmentation area scoring” value ([2]; Day 20, 0.5% compound I gel, 30 mg topical twice a day) was 3.60 ** and the “Hair depigmentation area scoring” value ([2]; Day 20, 1% compound I gel, 30 mg topical twice a day) was 3.60 **. For the same compound, the “Hair depigmentation area scoring” value ([2]; Day 20, 2% compound I gel, 30 mg topical twice a day) was 3.50 **, the “Hair depigmentation area scoring” value ([2]; Day 30, 0.5% compound I gel, 30 mg topical twice a day) was 3.30 ** and the “Hair depigmentation area scoring” value ([2]; Day 30, 1% compound I gel, 30 mg topical twice a day) was 3.40 **. For the same compound, the “Hair depigmentation area scoring” value ([2]; Day 30, 2% compound I gel, 30 mg topical twice a day) was 3.10 **, the “Hair depigmentation area scoring” value ([2]; Day 35, 0.5% compound I gel, 30 mg topical twice a day) was 3.20 ** and the “Hair depigmentation area scoring” value ([2]; Day 35, 1% compound I gel, 30 mg topical twice a day) was 3.10 **. For the same compound, the “Hair depigmentation area scoring” value ([2]; Day 35, 2% compound I gel, 30 mg topical twice a day) was 2.90 **, the “Hair depigmentation area scoring” value ([2]; Day 38, 0.5% compound I gel, 30 mg topical twice a day) was 3.20 ** and the “Hair depigmentation area scoring” value ([2]; Day 38, 1% compound I gel, 30 mg topical twice a day) was 2.90 **. The “Hair depigmentation area scoring” value ([2]; Day 38, 2% compound I gel, 30 mg topical twice a day) was 2.60 **, the “Hair depigmentation area scoring” value ([2]; Day 41, 0.5% compound I gel, 30 mg topical twice a day) was 2.90 ** and the “Hair depigmentation area scoring” value ([2]; Day 41, 1% compound I gel, 30 mg topical twice a day) was 2.60 **. For the same compound, the “Hair depigmentation area scoring” value ([2]; Day 41, 2% compound I gel, 30 mg topical twice a day) was 2.30 **, the “Hair depigmentation area scoring” value ([2]; Day 44, 0.5% compound I gel, 30 mg topical twice a day) was 2.80 ** and the “Hair depigmentation area scoring” value ([2]; Day 44, 1% compound I gel, 30 mg topical twice a day) was 2.50 **. For the same compound, the “Hair depigmentation area scoring” value ([2]; Day 44, 2% compound I gel, 30 mg topical twice a day) was 2.20 **, the “Hair depigmentation area scoring” value ([2]; Day 47, 0.5% compound I gel, 30 mg topical twice a day) was 2.60 ** and the “Hair depigmentation area scoring” value ([2]; Day 47, 1% compound I gel, 30 mg topical twice a day) was 2.40 **. The “Hair depigmentation area scoring” value ([2]; Day 47, 2% compound I gel, 30 mg topical twice a day) was 2.20 **, the “mean inhibitory rate of depigmentation area scores” value (from here on “mean inhibitory rate”) ([2]; Day 50, 0.5% compound I gel, 30 mg (5 mg/cm^2), compared with the model control group) was 52.0% and the “Hair depigmentation area scoring” value ([2]; Day 50, 0.5% compound I gel, 30 mg topical twice a day) was 2.50 **. The “mean inhibitory rate” value ([2]; Day 50, 1% compound I gel, 30 mg (5 mg/cm^2), compared with the model control group) was 54.9%, the “Hair depigmentation area scoring” value ([2]; Day 50, 1% compound I gel, 30 mg topical twice a day) was 2.30 ** and the “mean inhibitory rate” value ([2]; Day 50, 2% compound I gel, 30 mg (5 mg/cm^2), compared with the model control group) was 58.8%. The “Hair depigmentation area scoring” value ([2]; Day 50, 2% compound I gel, 30 mg topical twice a day) was 2.10 **, the “mean inhibitory rate” value ([2]; day 50, high concentration (2%) compound I gel, compared with the blank preparation group) was 51.2% and the “mean inhibitory rate” value ([2]; day 50, low concentration (0.5%) compound I gel, compared with the blank preparation group) was 41.9%. The “mean inhibitory rate” value ([2]; day 50, medium concentration (1%) compound I gel, compared with the blank preparation group) was 46.5%.
